Data reported in ChEMBL document CHEMBL1144598, “Synthesis and characterization of cobalt(II), nickel(II), copper(II) and zinc(II) complexes with Schiff base derived from 4-amino-3-mercapto-6-methyl-5-oxo-1,2,4-triazine” (2007).
Values after ≈ are worked out from the molar mass of the structure shown.

Key:
Staphylococcus aureus = experiment: Antibacterial activity against Staphylococcus aureus MTCC 3160 by agar dilution method; type: functional
[1] = tested on: Staphylococcus epidermidis; experiment: Antibacterial activity against Staphylococcus epidermidis MTCC 2639 by agar dilution method; type: functional
Bacillus subtilis = experiment: Antibacterial activity against Bacillus subtilis MTCC 121 by agar dilution method; type: functional
Salmonella typhi = experiment: Antibacterial activity against Salmonella typhi MTCC 733 by agar dilution method; type: functional, Salmonella enterica subsp. enterica serovar Typhi; details: Salmonella enterica
Escherichia coli = experiment: Antibacterial activity against Escherichia coli MTCC 51 by agar dilution method; type: functional

SMILES | MIC (Staphylococcus aureus) [µg/mL] | MIC [1] [µg/mL] | MIC (Bacillus subtilis) [µg/mL] | MIC (Salmonella typhi) [µg/mL] | MIC (Escherichia coli) [µg/mL]
C/C(=N\n1c(S)nnc(C)c1=O)c1ccccn1 | 16 (≈ 61.2 µM) | 32 (≈ 122 µM) | 8 (≈ 30.6 µM) | 16 (≈ 61.2 µM) | 16 (≈ 61.2 µM)
N[C@@H](C(=O)N[C@@H]1C(=O)N2C(C(=O)O)=C(Cl)CS[C@H]12)c1ccccc1 [CEFACLOR ANHYDROUS] | 16 (≈ 43.5 µM) | 32 (≈ 87 µM) | 8 (≈ 21.8 µM) | 8 (≈ 21.8 µM) | 4 (≈ 10.9 µM)
